One assay has as its system human breast tumor cells. The assay is described as follows: Hormonal therapy inhibition of cell proliferation (Example 6). Format: cell-based.
The next assay relates to tumor cells in culture. The assay is described as follows: Microtiter well assay of drug/radiation interaction (FIGS. 8A-8C). As to conditions: Taxol 8.5 ng/ml or 42.5 ng/ml + 2 Gy and 4 Gy versus radiation-only. In kind it is cell-based. The text has this: The microtiter well assay is ideally suited for examination of the interaction of chemotherapeutic agents and radiation. Issues such as the differential sensitivity of drug/radiation combinations and the timing of drug/radiation combinations may be directly addressed with this system.

Assay [1] deals with human ovarian tumor cells. The assay is described as follows: Combination chemotherapy microtiter assay (Example 5). Conditions: four tumor specimens.
Assay [2] relates to human brain tumor and human ovarian tumor cells. The experiment in a line: Combined modality drug/radiation microtiter assay (Example 8). Format: cell-based. Conditions: Taxol 0.5-25.0 μM with 2 Gy, or Taxol 5 μM with 1 Gy-6 Gy; through five days post-treatment.
Procedure: Twenty-four hours post-plating, cells in the microtiter plate wells were exposed to the chemotherapeutic agent Taxol. One set of plates was designed to have escalating Taxol doses with (0.5-25.0 μM) with a fixed radiation dose (2 Gy). A second set of plates was designed to have a fixed Taxol dose (5 μM) with an escalating radiation dose (1 Gy-6 Gy). The cells in the plates were irradiated using a Siemans Stabilipan X-ray machine operating at 250 kVp, 15 mA with a dose rate of 75 rad/min.
For each of the two treatment schema, cell number per well was monitored as a function of time through five days post-treatment. Cell number relative to controls was determined and survival curves were fit.
The test system of assay [3] is epithelial tumor cell lines. The experiment in a line: Immunoperoxidase staining for intermediate filaments. In kind it is cell-based. As to conditions: immunoperoxidase technique, cells in culture. The text has this:
(§1) The technique is practiced as follows. The same cell culturing and well distribution process is used as in the cytotoxicity assay described above, but rather than exposing the cells to chemotherapeutic or other agents, the cells are instead fixed and stained. With the stain or stain cocktail described below, the epithelial cells are identified by their intermediate filaments and/or specific membrane antigens by means of a monoclonal antibody immunoperoxidase technique. […] The fixed stained cells are then counted. If the specimen is positive for epithelial cells, the process is complete. If the specimen is negative for epithelial cells, an independent fixing and staining process is subsequently completed, with fresh cells from identical wells, using Vimentin as a stain to confirm the non-epithelial nature of the cells.
(§2) Many tumor specimens will contain a mixture of cancer and normal cells. Although in many cases tumor cells will readily grow in tissue culture while the normal cells will not, it is important to be able to distinguish the two cell types. Using immunoperoxidase techniques to stain cells for various intermediate filaments, the differences between normal (fibroblast-like) cells and cells from epithelial tumors were characterized. These techniques can also be used to identify other tumor cell characteristics which may have prognostic value. […]

In a further assay the test system is fibroblast cell line. The description is as above. As to conditions: immunoperoxidase technique, cells in culture. Format: cell-based.
Source text: as §1, §2

Turning to `CC/C(=C(\c1ccccc1)c1ccc(OCCN(C)C)cc1)c1ccccc1` [Tamoxifen], the “inhibition of cell proliferation (cell number relative to control)” value with human breast tumor cells (10 nM to 20 μM, six doses, 24 h exposure, then 72 h incubation, four breast tumor specimens) is listed as “two of the four breast specimens tested showed an inhibition of cell proliferation”. Also, the “concentration range in which the responses occurred” value with human breast tumor cells (range tested 10 nM to 20 μM) is reported as “mid-to-high”.

For the compound `CC(=O)O[C@H]1C(=O)[C@@]2(C)[C@H]([C@H](OC(=O)c3ccccc3)[C@]3(O)C[C@H](OC(=O)[C@H](O)[C@@H](NC(=O)c4ccccc4)c4ccccc4)C(C)=C1C3(C)C)[C@]1(OC(C)=O)CO[C@@H]1C[C@@H]2O` [Taxol], the “effect on radiation response (survival rates)” value in the assay with tumor cells in culture was “enhancement of radiation response”. The “cell number relative to control” value in assay [1] (escalating Taxol (1.0, 5.0, 25 μM) with fixed carboplatin (200 μM)) is “a dose response relationship was observed”. Further, the “cell killing in combination with radiation (cell number relative to controls, survival curves)” value in assay [2] is “Both additive and synergistic cell killing were noted”.

As for `N.N.O=C([O-])C1(C(=O)[O-])CCC1.[Pt+2]` [carboplatin], the “cell number relative to control” value in assay [1] (fixed Taxol (5 μM) with escalating carboplatin (50, 200, 1000 μM)) is given as “a dose response relationship was observed”.

As to Vimentin, the “staining of epithelial tumor cells” value in assay [3] is on record as “mildly positive”. In the assay with fibroblast cell line, the staining of fibroblasts result was “all fibroblast cells were positive”.

The record behind these values is patent US20040086888A1, “Method for tandem genomic/proteomic analysis of proliferating cells” (priority 2003, published 2004).
